Consider 14 compounds from paper PMC5561212, “In Vitro Micropatterned Human Pluripotent Stem Cell Test (µP-hPST) for Morphometric-Based Teratogen Screening” (Scientific Reports, 2017).

By Cmax is commonly meant the peak of the concentration-time curve.

Data set [1] relates to human embryonic cell line H9. Nature of the data set: Cytotoxicity assay (MTS), embryonic cytotoxicity. Format: cell-based. The settings on record: H9 cells, 3 days, 25% inhibitory concentration. On the procedure: (§1) A set of 30 compounds of known teratogenicity was selected to establish and validate the µP-hPST (Table 1). The compounds include equal number of non-teratogens and teratogens, and differ in chemical property and therapeutic usage. Before tested in the µP-hPSC colonies, the cytotoxicity profile of each compound was acquired. Two cell lines, hPSC line H9 and adult human dermal fibroblast line aHDF, were tested to represent embryonic cytotoxicity and general cytotoxicity of the compound respectively (Supplementary Figs S1, S2). The IC25 values, which were the 25% inhibitory concentrations, were calculated as the highest non-cytotoxic concentrations of the compound (Table 2, Fig. 1).
(§2) Human embryonic cell line H9 (WiCell Research Institute, Inc) and adult human dermal fibroblast (aHDF, Lonza) were cultured as previously described. Briefly, H9 cells were cultured in tissue culture plates coated with Matrigel^TM (354277, BD Biosciences) in mTeSR^TM1 medium (05850, StemCell^TM Technologies). Dispase (07923, StemCell^TM Technologies) treatment and mechanical scraping were applied during normal subculture. The aHDF cells was cultured in DMEM medium (10569-010, Gibco), supplemented with 10% FBS (SV30160.03, Thermo Scientific Hyclone) and 1% Pen-Strep (09367-34, Nacalai Tesque). Cells were subcultured every 5–6 days using 0.25% Trypsion-EDTA (25200-114, Gibco) to detach the cells.
(§3) The adverse effect of test compounds on cell proliferation and viability was detected using CellTiter 96® AQueous One Solution Cell Proliferation Assay (MTS, G3580, Promega). 10,000 H9 cells or 500 aHDF cells were seeded in 96-well tissue culture plates. For H9 cells, Matrigel^TM was coated before seeding. For each compound, 8 concentrations from serial 5-fold dilutions were tested besides the vehicle controls. Cells were cultured for 3 days with medium half change every day before cell viability was measured. Each drug was tested in three independent runs and its IC25 values (inhibitory concentrations which can cause 25% of reduction in cell number) were acquired by logistic regression using OriginPro 9.

The conditions of data set [2]: cited from earlier work.
In data set [3] the test system is human pluripotent stem cells. Also on record: method as in PMID 24154490. As to conditions: cited from earlier work.
For data set [4] the following is noted: cited from earlier work; for In vivo teratogenicity (in words): Supplementary Tables S2, S3; for In vivo teratogenicity: Table 1, known teratogenicity.
Data set [5] concerns µP-hPSC colonies (H9) under mesoendoderm induction. As to the kind of experiment: µP-hPST: mesoendoderm pattern disruption in µP-hPSC colonies and two-step teratogen classification. As to conditions: for Mesoendoderm pattern disruption seen in T fluorescent images: 3 days of compound exposure, in words; for Teratogenicity in µP-hPST / Teratogenicity in µP-hPST (in words): two-step classification rule.

The test system of data set [6] is adult human dermal fibroblasts (aHDF). As to the kind of experiment: Cytotoxicity assay (MTS), general cytotoxicity. Format: cell-based. As to conditions: aHDF cells, 3 days, 25% inhibitory concentration. On the procedure:
as §1, §2, §3

The subject of data set [7] is µP-hPSC colonies (H9) under mesoendoderm induction. Also on record: method as in earlier work. The settings on record: compounds tested previously; cited from earlier work.
Data set [8] has the same test system.
The test system of another data set is hPSC. Also on record: method as in PMID 24123775. The settings on record: cited from earlier work.
In data set [9] the test system is mouse embryonic stem cell. Also on record: method as in PMID 19678733. The settings on record: cited from earlier work.
Where [10] appears, read: human plasma, ref U.S. FDA website, EMA website or published journals (Supplementary Table S1).

Values after ≈ are worked out from the molar mass of the structure shown. Read-outs that look alike come from different tables or passages of the source. Some results are limits rather than exact numbers.

`CCN(CC)CCNC(=O)c1c(C)[nH]c(/C=C2\C(=O)Nc3ccc(F)cc32)c1C` [Sunitinib] returned an IC25H9 in [1] of 0.89 µg/mL (≈ 2.23 µM). Also, the Cmax in [2] (setting [10]) was 30 ng/mL. In addition, the “Teratogenicity in other in vitro assays” value in [3] was “TER[7]”. Moreover, in [4], the “In vivo teratogenicity (in words)” value is on record as “Teratogen” and the In vivo teratogenicity entry was “TER”. Moreover, in [5], the “Mesoendoderm pattern disruption seen in T fluorescent images” value (shortened to “Mesoendoderm pattern disruption seen”) is “promote mesoendoderm differentiation while decrease collective cell migration” and the “Teratogenicity in µP-hPST” value is listed as “TER”.

In turn, `O=C1Cc2cc(CCN3CCN(c4nsc5ccccc45)CC3)c(Cl)cc2N1` [Ziprasidone] returned an IC25aHDF in data set [6] of 2.7 µg/mL (≈ 6.54 µM). The same compound yielded an IC25H9 in data set [1] of 14.4 µg/mL (≈ 34.9 µM). Also, the Cmax in [2] (setting [10]) is 200 ng/mL. Moreover, in data set [3], the “Teratogenicity in other in vitro assays” value is “TER[7]”. In data set [4], the “In vivo teratogenicity (in words)” value is listed as “Teratogen” and the In vivo teratogenicity result is recorded as “TER”. Further, in [5], the “Teratogenicity in µP-hPST” value was “TER”.

`C[C@](N)(Cc1ccc(O)c(O)c1)C(=O)O` [Methyldopa]: in [6], the IC25aHDF was found to be 15.9 µg/mL (≈ 75.3 µM). In data set [1], this compound returned an IC25H9 of 23.2 µg/mL (≈ 110 µM). Besides, the Cmax in data set [2] (setting [10]) is 7500 ng/mL. The “Teratogenicity in other in vitro assays” value in data set [3] was “NON[7]”. Besides, the In vivo teratogenicity result in data set [4] is “NON”. Also, the “Teratogenicity in µP-hPST” value in data set [5] was “NON”.

Take `CC(C)(S)[C@@H](N)C(=O)O` [D-penicillamine]: the LDC in data set [7] was 200 µg/mL. The Cmax in [2] (compounds tested previously) was 200000 ng/mL. In addition, the “In vivo teratogenicity (in words)” value in [4] is on record as “Teratogen”. In addition, in data set [5], the “Teratogenicity in µP-hPST (in words)” value was “Teratogen”.

Turning to `CC/C(=C(/CC)c1ccc(O)cc1)c1ccc(O)cc1` [Diethylstilbestrol], the IC25aHDF in [6] was 6.1 µg/mL (≈ 22.7 µM). In addition, the IC25H9 in data set [1] is 8.8 µg/mL (≈ 32.8 µM). Moreover, the Cmax in data set [2] (setting [10]) is 5.6 ng/mL. The “Teratogenicity in other in vitro assays” value in [3] is “TER[7]”. Moreover, in data set [4], the “In vivo teratogenicity (in words)” value is on record as “Teratogen” and the In vivo teratogenicity result is reported as “TER”. Also, in data set [5], the “Mesoendoderm pattern disruption seen” value is recorded as “promote cell migration”, the “Teratogenicity in µP-hPST” value is “NON” and the “Teratogenicity in µP-hPST (in words)” value is listed as “misclassified as a non-teratogen”.

For the compound `CCCC(CCC)C(=O)O` [Valproic acid], in [7], the LDC is on record as 0.1 mM. In data set [4], the “In vivo teratogenicity (in words)” value is “Teratogen”. The “Teratogenicity in µP-hPST (in words)” value in [5] is “Teratogen”.

Take `COc1cccc2c1C(=O)c1c(O)c3c(c(O)c1C2=O)C[C@@](O)(C(=O)CO)C[C@@H]3O[C@H]1C[C@H](N)[C@H](O)[C@H](C)O1` [Doxorubicin]: the IC25aHDF in data set [6] (listed as Doxirubicin) is < 1 µg/mL. Also, the IC25H9 in data set [1] turned out to be 0.0002 µg/mL (≈ 0.000368 µM). Besides, the IC25H9 in data set [1] (listed as Doxirubicin) was < 1 µg/mL. Besides, in data set [2] (setting [10]), the Cmax was 370 ng/mL. Besides, the “Teratogenicity in other in vitro assays” value in data set [3] is “TER[7]”. In data set [4], the “In vivo teratogenicity (in words)” value is on record as “Teratogen” and the In vivo teratogenicity result was “TER”. Also, the “Teratogenicity in µP-hPST” value in [5] is given as “TER”.

For the compound `CC1=C(/C=C/C(C)=C/C=C/C(C)=C/C(=O)O)C(C)(C)CCC1` [Retinoid acid], in data set [8], the “Step1: Is LDC <= IC25 aHDF & IC25H9?” value is “Y” and the “Teratogenicity in µP-hPST (in words)” value was “Teratogen”. The LDC in data set [7] was 0.00036 µg/mL. In [2] (compounds tested previously), the Cmax is 347 ng/mL. Besides, in [4], the “In vivo teratogenicity (in words)” value is “Teratogen”.

`O=C1CCC(N2C(=O)c3ccccc3C2=O)C(=O)N1` (centres unmarked) [Thalidomide]: in data set [7], the LDC is 0.03 mM. In addition, in data set [2] (compounds tested previously, read-out: Cmax), the Cmax is 10.9 µM. In data set [4], the “In vivo teratogenicity (in words)” value is listed as “Teratogen”. In data set [5], the “Teratogenicity in µP-hPST (in words)” value is on record as “Teratogen”.

Turning to `O=c1[nH]cc(F)c(=O)[nH]1` [5-Fluorouracil], the Cmax in [2] (setting [10]) was 48400 ng/mL. For the same compound, the “Teratogenicity in other in vitro assays” value with hPSC is “TER[6], [7]”. Further, the “Teratogenicity in other in vitro assays” value in data set [3] is “TER[6], [7]”. In data set [4], the “In vivo teratogenicity (in words)” value is on record as “Teratogen” and the In vivo teratogenicity result is recorded as “TER”. Further, in data set [5], the “Mesoendoderm pattern disruption seen” value is “promote both cell differentiation and migration”; the “Teratogenicity in µP-hPST” value was “TER”.

Turning to `NS(=O)(=O)c1cc(C(=O)O)c(NCc2ccco2)cc1Cl` [Furosemide], the IC25aHDF in data set [6] is 30 µg/mL (≈ 90.7 µM). In data set [1], this compound had an IC25H9 of 362 µg/mL (≈ 1090 µM). In data set [9], the “Classification in mEST (in words)” value is recorded as “misclassified” and the “Teratogenicity in other in vitro assays” value is “NON[28]”. Also, in data set [4], the “In vivo teratogenicity (in words)” value is on record as “Teratogen” and the In vivo teratogenicity result was “TER”. In [5], the “Teratogenicity in µP-hPST” value was “TER” and the “Teratogenicity in µP-hPST (in words)” value was “teratogen”.

With `COc1cc2c(Nc3ccc(Br)cc3F)ncnc2cc1OCC1CCN(C)CC1` [Vandetanib], the IC25aHDF in data set [6] is 1.1 µg/mL (≈ 2.31 µM). The IC25H9 in [1] is 0.3 µg/mL (≈ 0.631 µM). In addition, the Cmax in data set [2] (setting [10]) was 400 ng/mL. In data set [3], the “Teratogenicity in other in vitro assays” value is “TER[7]”. Also, in [4], the “In vivo teratogenicity (in words)” value was “Teratogen” and the In vivo teratogenicity result is “TER”. In addition, the “Teratogenicity in µP-hPST” value in [5] is on record as “TER”.

With `Cc1ncc(C[n+]2csc(CCO)c2C)c(N)n1` [Thiamine], in [6], the IC25aHDF was >1000 µg/mL. For the same compound, the IC25H9 in [1] was >1000 µg/mL. The Cmax in [2] (setting [10]) was 110 ng/mL. In the data set on hPSC, the “Teratogenicity in other in vitro assays” value is “NON[6]”. In addition, in [4], the “In vivo teratogenicity (in words)” value is “Non-teratogen” and the In vivo teratogenicity entry is recorded as “NON”. In data set [5], the “Mesoendoderm pattern disruption seen” value is reported as “slow down or prevent mesoendoderm cell migration” and the “Teratogenicity in µP-hPST” value is reported as “NON”.

`COc1ccc2nc([S@@+]([O-])Cc3ncc(C)c(OC)c3C)[nH]c2c1` [Esomeprazole] registered an IC25aHDF in data set [6] of 42.1 µg/mL (≈ 122 µM). In addition, the IC25H9 in [1] was found to be 38.9 µg/mL (≈ 113 µM). The Cmax in [2] (setting [10]) is 1620 ng/mL. The “Teratogenicity in other in vitro assays” value in [3] was “NON[7]”. Also, the In vivo teratogenicity entry in data set [4] is listed as “NON”. For the same compound, in data set [5], the “Teratogenicity in µP-hPST” value was “NON”.
